Measurements: patent publication US5095016A, “Benzopyran compounds, processes for their production and pharmaceutical compositions” (Kaken Pharmaceutical Co., Ltd., priority 1989, dated 1992)
Read-outs that look alike come from different tables or passages of the source.

Legend:
[1] = Acute toxicity test (oral); settings: mouse, in vivo, male mice, mortality after 72 hours
Protocol: For an acute toxicity test, ten male mice with body weights of 22 to 25 g were used as one group, and a compound of the present invention was orally administered at a dose corresponding to the body weight. From the mortality after 72 hours, LD50 was calculated by an area method.

Potassium channel = molecular target: T1, Potassium channel (Rattus norvegicus, UniProt Q63563); assay: Potassium channel activating action: relaxation of KCl-contracted rat aorta spiral specimen; settings: for inhibition at 10 µM: 10^-5 mol; for inhibition at 1 µM: 10^-6 mol; for inhibition at 0.1 µM: 10^-7 mol
T1 construct: was extracted and formed into a spiral specimen; from tissue; host or cells: aorta of male Wistar rat (spiral strip)
T1 sequence (Q63563 1-1545 isoform Q63563-2): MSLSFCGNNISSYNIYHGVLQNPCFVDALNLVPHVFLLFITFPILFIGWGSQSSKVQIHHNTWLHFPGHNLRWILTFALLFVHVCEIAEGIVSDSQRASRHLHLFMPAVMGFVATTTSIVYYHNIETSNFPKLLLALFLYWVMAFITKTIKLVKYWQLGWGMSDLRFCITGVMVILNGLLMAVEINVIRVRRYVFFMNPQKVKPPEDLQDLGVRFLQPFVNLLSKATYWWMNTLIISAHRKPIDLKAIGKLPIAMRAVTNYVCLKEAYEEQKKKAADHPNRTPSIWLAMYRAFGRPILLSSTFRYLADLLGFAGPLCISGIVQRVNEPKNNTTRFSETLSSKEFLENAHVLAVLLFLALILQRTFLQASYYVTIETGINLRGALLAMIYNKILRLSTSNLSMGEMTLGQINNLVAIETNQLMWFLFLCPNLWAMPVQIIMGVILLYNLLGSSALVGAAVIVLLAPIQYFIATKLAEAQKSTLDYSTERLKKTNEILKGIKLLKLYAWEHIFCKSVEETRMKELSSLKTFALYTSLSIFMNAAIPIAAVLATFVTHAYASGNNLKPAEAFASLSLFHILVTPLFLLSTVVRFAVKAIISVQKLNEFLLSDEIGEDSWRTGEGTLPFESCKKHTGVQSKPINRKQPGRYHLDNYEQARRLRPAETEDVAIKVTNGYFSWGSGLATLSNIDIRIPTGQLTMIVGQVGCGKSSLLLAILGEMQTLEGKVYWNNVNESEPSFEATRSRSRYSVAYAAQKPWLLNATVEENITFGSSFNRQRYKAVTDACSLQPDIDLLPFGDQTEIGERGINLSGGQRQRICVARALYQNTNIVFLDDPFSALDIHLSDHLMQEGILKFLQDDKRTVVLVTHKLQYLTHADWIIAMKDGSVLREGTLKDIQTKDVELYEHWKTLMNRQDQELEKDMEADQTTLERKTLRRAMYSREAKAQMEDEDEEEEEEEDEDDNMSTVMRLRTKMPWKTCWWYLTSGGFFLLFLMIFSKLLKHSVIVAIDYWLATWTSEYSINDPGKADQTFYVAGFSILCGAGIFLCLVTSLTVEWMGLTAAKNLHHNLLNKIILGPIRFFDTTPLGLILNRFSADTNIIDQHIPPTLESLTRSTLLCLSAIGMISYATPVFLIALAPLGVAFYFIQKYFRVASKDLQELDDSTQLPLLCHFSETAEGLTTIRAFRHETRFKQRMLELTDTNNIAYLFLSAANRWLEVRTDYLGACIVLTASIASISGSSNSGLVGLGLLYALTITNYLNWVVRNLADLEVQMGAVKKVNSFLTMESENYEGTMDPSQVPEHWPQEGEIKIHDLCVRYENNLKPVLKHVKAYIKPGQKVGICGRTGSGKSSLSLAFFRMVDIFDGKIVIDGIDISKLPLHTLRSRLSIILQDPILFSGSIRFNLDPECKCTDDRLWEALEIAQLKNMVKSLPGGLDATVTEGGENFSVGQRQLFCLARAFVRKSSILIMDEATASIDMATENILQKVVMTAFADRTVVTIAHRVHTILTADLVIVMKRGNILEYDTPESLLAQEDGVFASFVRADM
T1 sequence (Q63664 whole entry partner): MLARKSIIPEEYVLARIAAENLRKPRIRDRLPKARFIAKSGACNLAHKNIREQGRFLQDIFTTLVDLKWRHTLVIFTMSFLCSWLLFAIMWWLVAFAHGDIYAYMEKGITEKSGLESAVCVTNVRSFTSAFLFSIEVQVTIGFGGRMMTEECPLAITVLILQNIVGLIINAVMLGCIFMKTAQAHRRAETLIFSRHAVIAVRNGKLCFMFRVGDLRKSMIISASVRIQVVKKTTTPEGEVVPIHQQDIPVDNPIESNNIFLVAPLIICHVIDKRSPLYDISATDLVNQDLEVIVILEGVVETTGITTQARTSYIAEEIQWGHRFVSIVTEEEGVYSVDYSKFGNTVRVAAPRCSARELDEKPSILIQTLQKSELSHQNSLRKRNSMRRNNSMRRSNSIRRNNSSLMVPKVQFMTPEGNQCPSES
Protocol: The aorta of a male Wister rat having a body weight of about 240 g was extracted and formed into a spiral specimen, which was suspended under a load of 0.5 g in a Krebs.Henselate solution (37° C.) saturated with a gas mixture of 95% oxygen+5% carbon dioxide. Then, 20 mM or 60 mM potassium chloride was added thereto, and the contraction reaction was measured by means of an isometric transducer (manufactured by Nippon Koden K.K.). When the contraction reaction by potassium chloride reached the maximum, a compound of the present invention was cumulatively added, whereupon the relaxation reaction was measured. The relaxation reaction due to the drug was determined as a relaxation rate relative to the maximum contraction by potassium chloride.

[2] = tested on: spontaneously hypertensive rat (SHR); assay: Blood pressure lowering activity in spontaneously hypertensive rats (oral); format: in vivo
Protocol: A male spontaneously hypertensive rat (SHR) of 20 weeks old was put in a cage and heated in a heating box at 45° C. for 5 minutes. SHR heated for 5 minutes was fixed to a measuring board, and a cuff for pressurizing and for blood pressure measurement was attached to the tail. As the pressurizing started, the heart rate was measured. After the rat became quiet, the maximum blood pressure was measured.
On the other hand, a compound of the present invention was dissolved or suspended in a 0.5% methyl cellulose solution and orally administered. Then, the blood pressure was measured upon expiration of 1 hour, 3 hours and 6 hours after the administration. [formula]

[3] = 20 mM KCl, read-out: Relaxation rate (%) in 20 mM KCl
[4] = 60 mM KCl, read-out: Relaxation rate (%) in 60 mM KCl

Compound | LD50 at 72 h [1] | inhibition at 10 µM (Potassium channel; [3]) | inhibition at 1 µM (Potassium channel; [3]) | inhibition at 0.1 µM (Potassium channel; [3]) | inhibition at 0.01 µM (Potassium channel; [3]) | inhibition at 10 µM (Potassium channel; [4]) | inhibition at 1 µM (Potassium channel; [4]) | inhibition at 0.1 µM (Potassium channel; [4]) | inhibition at 0.01 µM (Potassium channel; [4]) | Change (%) from the value before administration ([2]; 0.1 mg/kg, 1 hr later) | Change (%) from the value before administration ([2]; 0.1 mg/kg, 3 hrs later) | Change (%) from the value before administration ([2]; 0.1 mg/kg, 6 hrs later) | Change (%) from the value before administration ([2]; 0.3 mg/kg, 1 hr later) | Change (%) from the value before administration ([2]; 0.3 mg/kg, 3 hrs later) | Change (%) from the value before administration ([2]; 3 mg/kg, 1 hr later) | Change (%) from the value before administration ([2]; 3 mg/kg, 3 hrs later) | Change (%) from the value before administration ([2]; 3 mg/kg, 6 hrs later) | Change (%) from the value before administration ([2]; 10 mg/kg, 1 hr later) | Change (%) from the value before administration ([2]; 10 mg/kg, 3 hrs later) | Change (%) from the value before administration ([2]; 10 mg/kg, 6 hrs later) | further results
CC(=NC#N)NC1=CC(C)(C)Oc2ccc(C#N)cc21 [Example 34, 6-cyano-2,2-dimethyl-4-[(N-cyano-acetimidoyl)amino]-2H-benzo[b]pyran] | ≥ 2000 mg/kg | 100% | 100% | 94.3% | 28.7% | 21.8% | 13.2% | 4.5% | 0% | 12% | 5% | 0% | 41% | 45% | 65% | 63% | 63% | 64% | 64% | 65% | Change (%) from the value before administration ([2]; 0.3 mg/kg, 6 hrs later): 23%; Change (%) from the value before administration ([2]; 1 mg/kg, 1 hr later): 62%; Change (%) from the value before administration ([2]; 1 mg/kg, 3 hrs later): 60%; Change (%) from the value before administration ([2]; 1 mg/kg, 6 hrs later): 57%
CC(=NC#N)N[C@@H]1c2cc(C#N)ccc2OC(C)(C)[C@H]1O (relative stereo) [Example 2, 6-cyano-3,4-dihydro-2,2-dimethyl-trans-4-[(N-cyano-acetimidoyl)amino]-2H-benzo[b]pyran-3-ol] | ≥ 2000 mg/kg | 100% | 95.6% | 30.6% | 6.8% | 5.6% | 1% | 0% | 0% | 10% | 5% | 0% | 26% | 17% | 60% | 56% | 58% | 64% | 61% | 61% | Change (%) from the value before administration ([2]; 0.3 mg/kg, 6 hrs later): 12%; Change (%) from the value before administration ([2]; 1 mg/kg, 1 hr later): 42%; Change (%) from the value before administration ([2]; 1 mg/kg, 3 hrs later): 45%; Change (%) from the value before administration ([2]; 1 mg/kg, 6 hrs later): 26%
COC(=O)C1=C(C)NC(C)=C(C(=O)OCCN(C)Cc2ccccc2)C1c1cccc([N+](=O)[O-])c1 (stereo not drawn) [Nicardipin, reference compound] | – | – | – | – | – | – | – | – | – | – | – | – | – | – | 20% | 8% | 0% | 40% | 9% | 7% | –
